In US12128035B2, “Activating pyruvate kinase R” (Novo Nordisk Health Care AG, priority 2021, dated 2024):
Entries after “also recorded” stand apart in the source; their conditions may differ.

Legend:
[1] = test system: sickle RBCs; test: Phase 1: Lorrca Oxygenscan in SCD patients; format: in vivo, human; conditions: SCD single 700 mg, Post-dose (24 hours), median (range)
Procedure: In this study, SAD/MAD cohorts are randomized (3 to 1) to receive Compound 1 or placebo (P). Compound 1 was evaluated first in 4 healthy SAD cohorts and 4 healthy MAD (14-day dosing period) cohorts. Based on the safety, and PK/PD profile from HS, Compound 1 is then evaluated in 1 SCD SAD cohort and 2 SCD MAD cohorts. Specifically, based on the safety and pharmacokinetic/pharmacodynamics (PK/PD) profile in healthy volunteer studies, Compound 1 is evaluated in patients (pts) with SCD, first in a single dose (SD or SAD) cohort and then in multiple-dose (MD or MAD) cohorts (14-day and 12-week). Safety assessments include AEs, vital signs, ECGs and laboratory parameters. PK/PD blood sampling was performed on Day 1 (SAD/MAD) and Day 14 (MAD) and up to 72 h after the last dose and at the end-of-study visit. PD parameters included 2,3-DPG, ATP, and p50 in all cohorts with additional PD studies (including oxygen scan) performed only in the SCD cohorts. PD parameters included 2,3-DPG, ATP, p50, RBC deformability with controlled deoxygenation and reoxygenation (Lorrca® oxygen scan) and varying osmolality (Lorrca® osmoscan)). […]
Functional evaluation of RBCs was performed using Laser-Optical Rotational Red Cell Analyzer (Lorrca®) technology (RR Mechatronics, Zwaag, The Netherlands). […] In brief, the Oxygenscan allows for the measurement and visualisation of RBC elongation in shear stress in an oxygen gradient, during deoxygenation and re-oxygenation, expressed as the elongation index (EI). […] Evaluated Osmoscan parameters included: EImax; Omin (osmolality at ELmax; hypotonic region), which corresponds to the value of the hypotonic osmolality at which 50% of the cells hemolyse in an osmotic fragility assay and provides information on the initial surface-to-volume ratio of the RBCs; and Ohyper (osmolality corresponding to 50% of the EImax; hypertonic region), which correlates with the initial intracellular viscosity of the cell sample. […]
The effects of a single dose of Compound 1 (700 mg) versus placebo on oxygen scan, oxygen affinity (p50), and osmoscan in SCD patients were evaluated. […]

[2] = molecular target: T1, aromatase (Homo sapiens, UniProt P11511); test: Aromatase inhibition; conditions: clinical trials and non-clinical testing
T1 construct: endogenous in cells; host or cells: H295R adreno-cortical carcinoma cells; healthy human subjects in vivo
T1 sequence (P11511 1-503): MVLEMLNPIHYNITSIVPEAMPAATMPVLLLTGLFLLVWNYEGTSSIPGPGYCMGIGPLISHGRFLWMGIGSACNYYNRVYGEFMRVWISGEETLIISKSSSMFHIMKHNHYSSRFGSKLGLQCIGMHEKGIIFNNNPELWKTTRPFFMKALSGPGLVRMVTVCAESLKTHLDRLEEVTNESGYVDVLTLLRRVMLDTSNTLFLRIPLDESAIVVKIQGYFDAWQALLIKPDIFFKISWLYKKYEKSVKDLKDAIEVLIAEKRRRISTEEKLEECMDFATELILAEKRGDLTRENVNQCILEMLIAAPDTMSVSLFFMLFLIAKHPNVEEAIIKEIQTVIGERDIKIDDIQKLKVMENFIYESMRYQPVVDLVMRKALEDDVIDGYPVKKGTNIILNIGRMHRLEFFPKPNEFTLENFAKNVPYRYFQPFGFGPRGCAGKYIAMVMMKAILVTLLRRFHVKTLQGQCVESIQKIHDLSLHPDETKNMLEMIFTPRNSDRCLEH
Excerpt: Aromatase is an enzyme encoded by the CYP19A1 gene. It is located in the endoplasmic reticulum of estrogen-producing cells and catalyzes the rate-limiting step in the conversion of androgens to estrogens in many tissues. Aromatase is a cytochrome P-450 hemoprotein-containing enzyme complex that catalyzes the rate-limiting step in the production of estrogens, i.e. the conversion of androstenedione and testosterone, via three hydroxylation steps, to estrone and estradiol. Aromatase activity is present in many tissues, such as the ovaries, adipose tissue, muscle, liver, breast tissue, and in malignant breast tumors. The main sources of circulating estrogens are the ovaries in premenopausal women and adipose tissue in post-menopausal women. Aromatase catalyzes the conversion of androgens to estrone (E1), which is further converted to the potent estrogen estradiol (E2) by the enzyme 17β-HSD type 1 in the granulosa cell.
Aromatase is a key enzyme in the steroidogenic pathway that catalyzes the conversion of androgens, including testosterone, into estradiol. […]
Effects on circulating levels of estradiol and testosterone in male and female healthy subjects receiving Compound 1 or placebo for a treatment period of 14 days were evaluated. […] Testosterone and estradiol levels were assessed prior to dosing (baseline), and then on days 8, 14 and 17.

[3] = test system: estradiol and testosterone levels; test: Circulating estradiol and testosterone in healthy subjects, 14 days; format: in vivo, human; conditions: up to 14 days, 100-300 mg BID or 400 mg QD
Procedure: Effects on circulating levels of estradiol and testosterone in male and female healthy subjects receiving Compound 1 or placebo for a treatment period of 14 days were evaluated. Compound 1 was administered twice daily (BID) at dose levels of 100 mg, 200 mg, and 300 mg, and once daily (QD) at a dose level of 400 mg. Each dosing cohort was comprised of 9 subjects treated with Compound 1 and 3 subjects treated with placebo. Testosterone and estradiol levels were assessed prior to dosing (baseline), and then on days 8, 14 and 17.

O=C([C@H](CO)c1ccccc1)N1CC2=C(C1)CN(S(=O)(=O)c1cnc3c(c1)OCCO3)C2 (single isomer, unassigned) [Compound 1]
EImin (Oxygenscan) ([1]; pre-dose 0.193 (0.16, 0.21)): 0.296 (0.26, 0.38) | EImax (Oxygenscan) ([1]; pre-dose 0.445 (0.41, 0.51)): 0.451 (0.42, 0.52) | POS (Oxygenscan) ([1]; pre-dose 35.4 (27.3, 38.8)): 24.0 (17.9, 31.8) | aromatase inhibition [2]: has not shown evidence of inhibition of aromatase; also recorded: absence of aromatase inhibition | testosterone and estradiol levels [3]: no effect on estradiol and testosterone levels; also recorded: No effect on testosterone or estradiol levels; also recorded: no statistically significant changes and no clinically meaningful trends
